Results: ChEMBL document CHEMBL5608255, “Inhibitors of the Cyclic GMP-AMP Synthase (cGAS) as Potential Treatment for Autoimmune and Inflammatory Diseases” (ACS Med Chem Lett, 2024)

Tests used:
[1] = molecular target: T1, Cyclic GMP-AMP synthase (Homo sapiens, UniProt Q8N884); assay: Inhibition of cGAS in human THP-1 cells expressed in baculovirus infected insect cells incubated for 18 hrs by Lucia luciferase reporter assay
[2] = molecular target: T1, Cyclic GMP-AMP synthase; assay: Ratio of IC50 for inhibition of cGAS in human THP-1 cells using cGAMP as substrate to IC50 for inhibition of cGAS in human THP-1 cells expressed in baculovirus infected insect cells
[3] = molecular target: T1, Cyclic GMP-AMP synthase; assay: Inhibition of cGAS in dsDNA stimulated human Whole blood cell by measuring IFNalpha-2a production incubated for 60 mins followed by addition of double stranded DNA measured after 1350 mins by microplate reader assay; format: tissue-based
[4] = molecular target: T1, Cyclic GMP-AMP synthase; assay: Inhibition of N-terminal 6His-SUMO tagged human cGAS (1 to 522 residues) extracted from Escherichia coli BL21(DE3)pLysS cells using GTP/ATP as substrate by measuring cGAMP production incubated for 90 mins in presence of 45 base pair DNA by mass spectrometric analysis

T1 sequence (Q8N884 whole entry): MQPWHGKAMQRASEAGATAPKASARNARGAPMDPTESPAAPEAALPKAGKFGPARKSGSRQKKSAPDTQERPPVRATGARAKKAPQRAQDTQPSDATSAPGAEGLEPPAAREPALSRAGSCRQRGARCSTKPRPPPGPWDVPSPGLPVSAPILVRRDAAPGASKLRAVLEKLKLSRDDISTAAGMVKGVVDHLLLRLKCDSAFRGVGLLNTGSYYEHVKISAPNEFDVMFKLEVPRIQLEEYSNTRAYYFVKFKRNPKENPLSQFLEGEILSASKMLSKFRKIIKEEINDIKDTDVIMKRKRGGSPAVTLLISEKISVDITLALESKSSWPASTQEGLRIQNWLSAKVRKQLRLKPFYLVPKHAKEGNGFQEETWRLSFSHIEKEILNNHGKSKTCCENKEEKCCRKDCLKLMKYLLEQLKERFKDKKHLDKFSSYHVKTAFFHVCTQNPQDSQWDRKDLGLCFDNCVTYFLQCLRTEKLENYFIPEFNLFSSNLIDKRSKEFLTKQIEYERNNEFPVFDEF

Compound | IC50 [1] | Ratio IC50 [2] | IC50 [3] | IC50 [4]
Cc1cccc2c1nc1n2[C@@H]2CCN(C[C@H]2C)C(=O)CCCCCC(F)(F)c2nc(c3oc4ccccc4c3n2)N2C[C@H](C[C@H]2C(=O)O)O1 | 180 nM | 33 | 1580 nM | –
C[C@H]1CN2CC[C@@H]1n1c(nc3ccccc31)O[C@H]1C[C@@H](C(=O)O)N(C1)c1nc(nc3c1oc1ccccc13)CCCCCN(C)C2=O | 500 nM | 15 | 186 nM | –
C[C@H]1CN2CC[C@@H]1n1c(nc3cc(Cl)ccc31)O[C@H]1C[C@@H](C(=O)O)N(C1)c1nc(nc3c1oc1ccccc13)C(F)(F)OCCCCC2=O | 3.1 nM | > 2220 | 3 nM | –
C[C@H]1CN2CC[C@H]1n1c(nc3ccccc31)O[C@H]1C[C@@H](C(=O)O)N(C1)c1nc(nc3c1oc1ccccc13)C(F)(F)COCCCCC2=O | 0.44 nM | 32100 | 1 nM | 2.1 nM
C[C@H]1CN2CC[C@@H]1n1c(nc3ccccc31)O[C@H]1C[C@@H](C(=O)O)N(C1)c1nc(nc3c1oc1cc(Cl)ccc13)C(F)(F)CCCOCC2=O | 1.5 nM | > 6580 | 4 nM | –
C[C@H]1CN2CC[C@@H]1n1c(nc3ccccc31)O[C@H]1C[C@@H](C(=O)O)N(C1)c1nc(nc3c1oc1ccccc13)C(F)(F)CCCCC(F)(F)C2=O | 13 nM | 519 | 8 nM | –
C[C@@H]1CN2CC[C@H]1n1c(nc3ccccc31)O[C@H]1C[C@@H](C(=O)O)N(C1)c1nc(nc3c1oc1ccccc13)CCCCCOC2=O | 180 nM | 45 | 439 nM | –
C[C@H]1CN2CC[C@@H]1n1c(nc3cc(Cl)ccc31)O[C@H]1C[C@@H](C(=O)O)N(C1)c1nc(nc3c1oc1cc(Cl)ccc13)CCOCCCC2=O | 2.4 nM | 3930 | 17 nM | –
C[C@@H]1CN2CC[C@H]1n1c(nc3cc(Cl)ccc31)O[C@H]1C[C@@H](C(=O)O)N(C1)c1nc(nc3c1oc1ccccc13)CCOCCCC2=O | 39 nM | > 253 | 87 nM | –
CC(=O)[C@@H]1C[C@H]2CN1c1nc(nc3c1oc1ccccc13)CCOCCCC(=O)N1CC[C@@H]([C@@H](C)C1)n1c(nc3cc(Cl)ccc31)O2 | 2.8 nM | > 3560 | 5 nM | 2.8 nM
